Measurements from ChEMBL document CHEMBL3596105, “Phospholipid derivatives of cladribine and fludarabine: synthesis and biological properties” (Bioorg Med Chem, 2015).

How the values were obtained:
[1] = tested on: MCF7; assay: Antiproliferative activity against human MCF7 cells assessed as cell growth inhibition after 48 hrs by MTT assay; type: functional, cell-based; conditions: MCF7, 48 h
[2] = tested on: Mus musculus; assay: Apparent half-life in ICR mouse assessed as F-ara-A content at 50 mg/kg, ig administered as single dose by HPLC analysis; type: ADME, organism-based; conditions: in vivo, po
[3] = tested on: K562; assay: Antiproliferative activity against human K562 cells assessed as cell growth inhibition after 48 hrs by MTT assay; type: functional, cell-based; conditions: K562, 48 h
[4] = Antiproliferative activity against human M-HeLa cells assessed as cell growth inhibition after 48 hrs by MTT assay; type: functional, cell-based
[5] = tested on: Mus musculus; assay: Tmax in ICR mouse assessed as F-ara-A concentration at 50 mg/kg, ig administered as single dose by HPLC analysis; type: ADME, organism-based; conditions: in vivo, po
[6] = tested on: Mus musculus; assay: Cmin in ICR mouse assessed as F-ara-A concentration at 50 mg/kg, ig administered as single dose after 24 hrs by HPLC analysis; type: ADME, organism-based; conditions: in vivo, po
[7] = Antiproliferative activity against human MOLT3 cells assessed as cell growth inhibition after 48 hrs by MTT assay; type: functional, cell-based; conditions: MOLT-3, 48 h
[8] = tested on: HL-60; assay: Antiproliferative activity against human HL60 cells assessed as cell growth inhibition after 48 hrs by MTT assay; type: functional, cell-based; conditions: HL-60, 48 h
[9] = Antiproliferative activity against human KG1 cells assessed as cell growth inhibition after 48 hrs by MTT assay; type: functional, cell-based; conditions: KG-1, 48 h
[10] = tested on: Mus musculus; assay: Cmax in ICR mouse assessed as F-ara-A concentration at 50 mg/kg, ig administered as single dose by HPLC analysis; type: ADME, organism-based; set-up: dose 50 mg/kg, route intragastric; conditions: in vivo, po
[11] = Antiproliferative activity against human SK-UT-1B cells assessed as cell growth inhibition after 48 hrs by MTT assay; type: functional, cell-based; conditions: Skut1B
[12] = tested on: Raji; assay: Antiproliferative activity against human Raji cells assessed as cell growth inhibition after 48 hrs by MTT assay; type: functional, cell-based
[13] = tested on: ZR-75-1; assay: Antiproliferative activity against human ZR-75-1 cells assessed as cell growth inhibition after 48 hrs by MTT assay; type: functional, cell-based; conditions: ZR-75-1, 48 h
[14] = tested on: Rattus norvegicus; assay: Prodrug conversion in Wistar rat assessed as smooth increase in F-ara-A concentration in serum at 77 mg/kg, ig administered as single dose by HPLC analysis; type: ADME, organism-based; conditions: in vivo, po
[15] = tested on: Rattus norvegicus; assay: Prodrug conversion in Wistar rat assessed as slow F-ara-A release into bloodstream at 77 mg/kg, ig administered as single dose by HPLC analysis; type: ADME, organism-based; conditions: in vivo, po
[16] = tested on: Rattus norvegicus; assay: Prodrug conversion in Wistar rat assessed as prolonged serum circulation of liberated F-ara-A at 77 mg/kg, ig administered as single dose by HPLC analysis; type: ADME, organism-based; conditions: in vivo, po
[17] = tested on: Rattus norvegicus; assay: Prodrug conversion in Wistar rat assessed as prolonged serum circulation of liberated F-ara-A at 72 mg/kg, ig administered as single dose by HPLC analysis; type: ADME, organism-based; conditions: in vivo, po
[18] = tested on: Mus musculus; assay: Cmax in ICR mouse assessed as F-ara-A concentration at 120.4 mg/kg, ig administered as single dose by HPLC analysis; type: ADME, organism-based; set-up: dose 120.4 mg/kg, route intragastric; conditions: in vivo, po
[19] = tested on: Rattus norvegicus; assay: Prodrug conversion in Wistar rat assessed as slow F-ara-A release into bloodstream at 72 mg/kg, ig administered as single dose by HPLC analysis; type: ADME, organism-based; conditions: in vivo, po
[20] = tested on: K562; assay: Antiproliferative activity against human K562 cells assessed as cell growth inhibition after 72 hrs by MTT assay; type: functional, cell-based; conditions: K562, 72 h
[21] = tested on: Mus musculus; assay: Tmax in ICR mouse assessed as F-ara-A concentration at 120.4 mg/kg, ig administered as single dose by HPLC analysis; type: ADME, organism-based; conditions: in vivo, po
[22] = tested on: HL-60; assay: Antiproliferative activity against human HL60 cells assessed as cell growth inhibition after 72 hrs by MTT assay; type: functional, cell-based; conditions: HL-60, 72 h
[23] = tested on: Mus musculus; assay: Apparent half-life in ICR mouse assessed as F-ara-A content at 120.4 mg/kg, ig administered as single dose by HPLC analysis; type: ADME, organism-based; conditions: in vivo, po
[24] = tested on: Mus musculus; assay: Cmin in ICR mouse assessed as F-ara-A concentration at 120.4 mg/kg, ig administered as single dose after 24 hrs by HPLC analysis; type: ADME, organism-based; conditions: in vivo, po
[25] = tested on: Rattus norvegicus; assay: Prodrug conversion in Wistar rat assessed as smooth increase in F-ara-A concentration in serum at 72 mg/kg, ig administered as single dose by HPLC analysis; type: ADME, organism-based; conditions: in vivo, po
[26] = Antiproliferative activity against human KG1 cells assessed as cell growth inhibition after 72 hrs by MTT assay; type: functional, cell-based; conditions: KG-1, 72 h
[27] = tested on: MCF7; assay: Antiproliferative activity against human MCF7 cells assessed as cell growth inhibition after 72 hrs by MTT assay; type: functional, cell-based; conditions: MCF7, 72 h
[28] = tested on: ZR-75-1; assay: Antiproliferative activity against human ZR-75-1 cells assessed as cell growth inhibition after 72 hrs by MTT assay; type: functional, cell-based; conditions: ZR-75-1, 72 h
[29] = Antiproliferative activity against human SK-UT-1B cells assessed as cell growth inhibition after 72 hrs by MTT assay; type: functional, cell-based; conditions: Skut1B
[30] = Antiproliferative activity against human M-HeLa cells assessed as cell growth inhibition after 72 hrs by MTT assay; type: functional, cell-based
[31] = Antiproliferative activity against human SKHEP1 cells assessed as cell growth inhibition after 48 hrs by MTT assay; type: functional, cell-based; conditions: SK-HEP1, 48 h
[32] = Antiproliferative activity against human RPMI8226 cells assessed as cell growth inhibition after 48 hrs by MTT assay; type: functional, cell-based; conditions: RPMI-8226, 48 h

Nc1nc(F)nc2c1ncn2[C@@H]1O[C@H](COP(=O)(O)O)[C@@H](O)[C@@H]1O [FLUDARABINE PHOSPHATE]
IC50 [1]: 0.13 µM
t1/2(app) [2]: 1.5 h
IC50 [3]: 0.4 µM
IC50 [4]: 2 µM
Tmax [5]: 0.9 h
Cmin [6]: 13 ng/mL
IC50 [7]: 0.95 µM
IC50 [8]: 0.09 µM
IC50 [9]: 0.15 µM
Cmax [10]: 8989 ng/mL
IC50 [11]: 6 µM
IC50 [12]: 0.4 µM
IC50 [13]: 0.6 µM

CCCCCCCCCCCCCC(=O)OCC(COC(=O)CCCCCCCCCCCCC)OP(=O)(O)OC[C@H]1O[C@@H](n2cnc3c(N)nc(Cl)nc32)C[C@@H]1O
IC50 [1]: > 100 µM
IC50 [3]: > 100 µM
IC50 [7]: > 100 µM

CCCCCCCCCCCCCCCC(=O)OCC(COC(=O)CCCCCCCCCCCCCCC)OP(=O)([O-])OC[C@H]1O[C@@H](n2cnc3c(N)nc(F)nc32)[C@@H](O)[C@@H]1O.[Na+]
IC50 [1]: > 100 µM
IC50 [3]: > 100 µM
Drug metabolism [14]: metabolite_detected
IC50 [4]: > 100 µM
Drug metabolism [15]: metabolite_detected
Drug metabolism [16]: metabolite_detected
IC50 [7]: > 100 µM
IC50 [8]: > 100 µM
IC50 [9]: > 100 µM
IC50 [11]: > 100 µM
IC50 [12]: > 100 µM
IC50 [13]: > 100 µM

CCCCCCCCCCCCCC(=O)OCC(COP(=O)([O-])OC[C@H]1O[C@@H](n2cnc3c(N)nc(F)nc32)[C@@H](O)[C@@H]1O)OC(=O)CCCCCCCCCCCCC.[Na+] (some centres not stated)
IC50 [1]: 45 µM
Drug metabolism [17]: metabolite_detected
Cmax [18]: 1613 ng/mL
Drug metabolism [19]: metabolite_detected
IC50 [3]: 45 µM
IC50 [4]: > 100 µM
IC50 [20]: > 100 µM
Tmax [21]: 2.8 h
IC50 [22]: 16 µM
t1/2(app) [23]: 14.2 h
IC50 [7]: > 100 µM
Cmin [24]: 199 ng/mL
Drug metabolism [25]: metabolite_detected
IC50 [26]: 9 µM
IC50 [8]: 30 µM
IC50 [9]: 55 µM
IC50 [11]: > 100 µM
IC50 [12]: > 100 µM
IC50 [27]: 18 µM
IC50 [13]: > 100 µM

CCCCCCCCCCCCCC(=O)OCC(COC(=O)CCCCCCCCCCCCC)OP(=O)([O-])OC[C@H]1O[C@@H](n2cnc3c(N)nc(F)nc32)[C@@H](O)[C@@H]1O.[Na+]
IC50 [1]: > 100 µM
IC50 [28]: 75 µM
Drug metabolism [17]: metabolite_detected
Drug metabolism [19]: metabolite_detected
IC50 [3]: 75 µM
IC50 [4]: > 100 µM
IC50 [20]: > 100 µM
IC50 [22]: 65 µM
IC50 [7]: > 100 µM
Drug metabolism [25]: metabolite_detected
IC50 [29]: 55 µM
IC50 [26]: 35 µM
IC50 [8]: 80 µM
IC50 [9]: > 100 µM
IC50 [30]: 45 µM
IC50 [11]: > 100 µM
IC50 [12]: > 100 µM
IC50 [27]: 45 µM
IC50 [13]: > 100 µM

CCCCCCCCCCCCCC(=O)OCC(COP(=O)(O)OC[C@H]1O[C@@H](n2cnc3c(N)nc(Cl)nc32)C[C@@H]1O)OC(=O)CCCCCCCCCCCCC (some centres not stated)
IC50 [1]: > 100 µM
IC50 [3]: 50 µM
IC50 [31]: > 100 µM
IC50 [32]: > 100 µM
IC50 [7]: 8 µM
IC50 [9]: 17 µM
IC50 [11]: > 100 µM
IC50 [13]: > 100 µM

CCCCCCCCCCCCCCCC(=O)OCC(COP(=O)([O-])OC[C@H]1O[C@@H](n2cnc3c(N)nc(F)nc32)[C@@H](O)[C@@H]1O)OC(=O)CCCCCCCCCCCCCCC.[Na+] (some centres not stated)
IC50 [1]: > 100 µM
IC50 [3]: > 100 µM
Drug metabolism [14]: metabolite_detected
IC50 [4]: > 100 µM
Drug metabolism [15]: metabolite_detected
Drug metabolism [16]: metabolite_detected
IC50 [7]: > 100 µM
IC50 [26]: 75 µM
IC50 [8]: > 100 µM
IC50 [9]: > 100 µM
IC50 [11]: > 100 µM
IC50 [12]: > 100 µM
IC50 [13]: > 100 µM

CCCCCCCCCCCCCCCC(=O)OCC(COC(=O)CCCCCCCCCCCCCCC)OP(=O)(O)OC[C@H]1O[C@@H](n2cnc3c(N)nc(Cl)nc32)C[C@@H]1O
IC50 [1]: > 100 µM
IC50 [3]: > 100 µM
IC50 [7]: > 100 µM

Nc1nc(Cl)nc2c1ncn2[C@H]1C[C@H](O)[C@@H](CO)O1 [CLADRIBINE]
IC50 [1]: 45 µM
IC50 [3]: 10 µM
IC50 [31]: 4 µM
IC50 [32]: 6 µM
IC50 [7]: 2.3 µM
IC50 [9]: 0.2 µM
IC50 [11]: 1 µM
IC50 [13]: > 100 µM

CCCCCCCCCCCCCCCC(=O)OCC(COP(=O)(O)OC[C@H]1O[C@@H](n2cnc3c(N)nc(Cl)nc32)C[C@@H]1O)OC(=O)CCCCCCCCCCCCCCC (some centres not stated)
IC50 [1]: > 100 µM
IC50 [3]: > 100 µM
IC50 [7]: > 100 µM
